Data: patent US10450341B2, “Cyclic di-nucleotides as modulators of STING” (GlaxoSmithKline Intellectual Property Development Limited, priority 2014, dated 2019)

Biological target: STING (Homo sapiens, UniProt Q86WV6)
Assay: STING binding assay similar to that described by Li et al

Chain of STING (Q86WV6 whole entry H232R, species assumed): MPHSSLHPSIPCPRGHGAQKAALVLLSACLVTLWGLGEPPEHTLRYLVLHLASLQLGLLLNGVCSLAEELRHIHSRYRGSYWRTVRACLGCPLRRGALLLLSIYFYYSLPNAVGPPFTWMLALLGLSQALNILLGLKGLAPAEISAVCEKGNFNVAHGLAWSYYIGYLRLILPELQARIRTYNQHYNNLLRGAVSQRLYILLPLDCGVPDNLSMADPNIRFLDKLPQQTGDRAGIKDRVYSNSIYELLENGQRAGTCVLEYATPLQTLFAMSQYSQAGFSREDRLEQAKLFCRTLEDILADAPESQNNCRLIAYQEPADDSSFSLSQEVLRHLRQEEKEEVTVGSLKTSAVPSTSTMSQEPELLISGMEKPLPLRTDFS

In the case of Nc1nc2c(ncn2[C@@H]2C[C@@H]3COP(=O)(O)O[C@H]4[C@@H](F)[C@H](n5cnc6c(N)ncnc65)O[C@@H]4COP(=O)(O)O[C@@H]2[C@@H]3O)c(=O)[nH]1 [Example 4, (1S,6R,8R,9R,10R,15R,17R,18R)-17-(2-Amino-6-oxo-6,9-dihydro-1H-purin-9-yl)-8-(6-amino-9H-purin-9-yl)-9-fluoro-3,12,18-trihydroxy-2,4,7,11,13-pentaoxa-3λ^5,12λ^5-diphosphatricyclo[13.2.1.0^6,10]octadecane-3,12-dione], the IC50 is reported as < 100 µM.
